Tested on: MV-4-11 cells
Assay: Gene expression microarray analysis (Affymetrix PrimeView) and GSEA
Type: cell-based, human
Set-up: RFU PODN (11730768_x_at) / Fold change /veh PODN (11730768_x_at) / RFU LINC00158 (11744669_a_at) / Fold change /veh LINC00158 (11744669_a_at) / RFU DUSP10 (11751237_a_at) / Fold change /veh DUSP10 (11751237_a_at) / RFU ID3 (11757404_x_at) / Fold change /veh ID3 (11757404_x_at) / RFU PLEKHG5 (11737974_s_at) / Fold change /veh PLEKHG5 (11737974_s_at) / RFU LRRC4B (11730491_at) / Fold change /veh LRRC4B (11730491_at) / RFU GIMAP4 (11747438_a_at) / Fold change /veh GIMAP4 (11747438_a_at) / RFU KRT8 (11758183_x_at) / Fold change /veh KRT8 (11758183_x_at) / RFU CNN1 (11734310_a_at) / Fold change /veh CNN1 (11734310_a_at) / RFU VPS37D (11726825_at) / Fold change /veh VPS37D (11726825_at) / RFU C10orf10 (11716522_x_at) / Fold change /veh C10orf10 (11716522_x_at) / RFU KIR2DL2 /// KIR2DL4 /// KIR2DL5A /// KIR2DL5B /// KIR2DS1 /// KIR2DS2 /// KIR2DS3 /// KIR2DS4 /// KIR3DL3 /// KIR3DL3 /// KIR3DS1 (11738374_at) / Fold change /veh KIR2DL2 /// KIR2DL4 /// KIR2DL5A /// KIR2DL5B /// KIR2DS1 /// KIR2DS2 /// KIR2DS3 /// KIR2DS4 /// KIR3DL3 /// KIR3DL3 /// KIR3DS1 (11738374_at) / RFU C1QL1 (11718748_at) / Fold change /veh C1QL1 (11718748_at) / RFU TMPRSS4 (11747572_a_at) / Fold change /veh TMPRSS4 (11747572_a_at) / RFU HAMP (11756126_x_at) / Fold change /veh HAMP (11756126_x_at) / RFU RNFT2 (11725882_a_at) / Fold change /veh RNFT2 (11725882_a_at) / RFU NR4A2 (11747474_a_at) / Fold change /veh NR4A2 (11747474_a_at) / RFU ABCC12 (11746883_a_at) / Fold change /veh ABCC12 (11746883_a_at) / RFU TMEM136 (11760407_x_at) / Fold change /veh TMEM136 (11760407_x_at) / RFU CLDN22 /// WWC2 (11732394_at) / Fold change /veh CLDN22 /// WWC2 (11732394_at) / RFU HLA-DPB1 (11760878_x_at) / Fold change /veh HLA-DPB1 (11760878_x_at) / RFU SPINT1 (11716480_a_at) / Fold change /veh SPINT1 (11716480_a_at) / RFU GAP43 (11754022_s_at) / Fold change /veh GAP43 (11754022_s_at) / RFU A4GNT (11735810_at) / Fold change /veh A4GNT (11735810_at) / RFU PRB3 (11715151_x_at) / Fold change /veh PRB3 (11715151_x_at) / RFU TUBB4B (11761932_at) / Fold change /veh TUBB4B (11761932_at) / RFU CAPN14 (11732068_a_at) / Fold change /veh CAPN14 (11732068_a_at) / RFU TMCC2 (11721928_a_at) / Fold change /veh TMCC2 (11721928_a_at) / RFU IRGQ (11745062_a_at) / Fold change /veh IRGQ (11745062_a_at) / RFU FAM174B (11720279_a_at) / Fold change /veh FAM174B (11720279_a_at) / RFU TMPRSS4 (11748680_a_at) / Fold change /veh TMPRSS4 (11748680_a_at) / RFU FAM212B (11763350_a_at) / Fold change /veh FAM212B (11763350_a_at) / RFU PLEKHG5 (11743358_a_at) / Fold change /veh PLEKHG5 (11743358_a_at) / RFU ZSCAN30 (11745921_a_at) / Fold change /veh ZSCAN30 (11745921_a_at) / RFU CMKLR1 (11741424_a_at) / Fold change /veh CMKLR1 (11741424_a_at) / RFU LOC101060620 /// MAPK8IP1 (11723275_at) / Fold change /veh LOC101060620 /// MAPK8IP1 (11723275_at) / RFU SPTSSB (11747773_x_at) / Fold change /veh SPTSSB (11747773_x_at) / RFU PRSS12 (11739890_at) / Fold change /veh PRSS12 (11739890_at) / RFU BIN1 (11741810_x_at) / Fold change /veh BIN1 (11741810_x_at) / RFU WNT11 (11732464_a_at) / Fold change /veh WNT11 (11732464_a_at) / RFU C10orf10 (11716521_a_at) / Fold change /veh C10orf10 (11716521_a_at) / RFU C5orf56 (11738089_at) / Fold change /veh C5orf56 (11738089_at) / RFU CYB561 (11721691_x_at) / Fold change /veh CYB561 (11721691_x_at) / RFU ANKRD19P (11752326_a_at) / Fold change /veh ANKRD19P (11752326_a_at) / RFU OR2T12 /// OR2T33 /// OR2T8 (11738714_s_at) / Fold change /veh OR2T12 /// OR2T33 /// OR2T8 (11738714_s_at) / RFU VCAN (11748164_a_at) / Fold change /veh VCAN (11748164_a_at) / RFU JSRP1 (11732532_at) / Fold change /veh JSRP1 (11732532_at) / RFU KRTAP10-11 (11738290_x_at) / Fold change /veh KRTAP10-11 (11738290_x_at) / RFU MYO3A (11730013_a_at) / Fold change /veh MYO3A (11730013_a_at) / RFU EBF3 (11725865_a_at) / Fold change /veh EBF3 (11725865_a_at) / RFU CAMK2N1 (11719241_x_at) / Fold change /veh CAMK2N1 (11719241_x_at) / RFU C5orf56 (11738088_a_at) / Fold change /veh C5orf56 (11738088_a_at) / RFU OLFML3 (11715873_a_at) / Fold change /veh OLFML3 (11715873_a_at) / RFU LOC100653217 /// NTM (11731650_a_at) / Fold change /veh LOC100653217 /// NTM (11731650_a_at) / RFU MAPK11 (11762145_a_at) / Fold change /veh MAPK11 (11762145_a_at) / RFU FIZ1 (11724087_x_at) / Fold change /veh FIZ1 (11724087_x_at) / RFU OASL (11726364_x_at) / Fold change /veh OASL (11726364_x_at) / RFU SOX15 (11748057_x_at) / Fold change /veh SOX15 (11748057_x_at) / RFU CD79A (11719716_a_at) / Fold change /veh CD79A (11719716_a_at) / RFU HIST1H1D (11736915_at) / Fold change /veh HIST1H1D (11736915_at) / RFU CASKIN2 (11723855_a_at) / Fold change /veh CASKIN2 (11723855_a_at) / RFU LOC730098 (11760151_x_at) / Fold change /veh LOC730098 (11760151_x_at) / RFU OR4N2 (11742367_at) / Fold change /veh OR4N2 (11742367_at) / RFU PRRT2 (11749266_a_at) / Fold change /veh PRRT2 (11749266_a_at) / RFU SNX32 (11753110_a_at) / Fold change /veh SNX32 (11753110_a_at) / RFU CDHR5 (11726645_a_at) / Fold change /veh CDHR5 (11726645_a_at) / RFU RCAN1 (11760418_a_at) / Fold change /veh RCAN1 (11760418_a_at) / RFU FAM167A (11723789_a_at) / Fold change /veh FAM167A (11723789_a_at) / RFU FAM26E (11764081_at) / Fold change /veh FAM26E (11764081_at) / RFU ISYNA1 (11749810_s_at) / Fold change /veh ISYNA1 (11749810_s_at) / RFU ACY1 (11761880_at) / Fold change /veh ACY1 (11761880_at) / RFU 11764098_at / Fold change /veh 11764098_at / RFU SAMD14 (11745864_x_at) / Fold change /veh SAMD14 (11745864_x_at) / RFU NPB (11741838_a_at) / Fold change /veh NPB (11741838_a_at) / RFU TMPRSS6 (11731388_a_at) / Fold change /veh TMPRSS6 (11731388_a_at) / RFU KRTAP10-2 (11738614_at) / Fold change /veh KRTAP10-2 (11738614_at) / RFU ARHGAP8 /// PRR5-ARHGAP8 (11727945_x_at) / Fold change /veh ARHGAP8 /// PRR5-ARHGAP8 (11727945_x_at) / RFU KRTAP5-7 /// NADSYN1 (11734609_at) / Fold change /veh KRTAP5-7 /// NADSYN1 (11734609_at) / RFU RASL12 (11751679_a_at) / Fold change /veh RASL12 (11751679_a_at) / RFU CDKN2B (11736163_a_at) / Fold change /veh CDKN2B (11736163_a_at) / RFU PRF1 (11729649_at) / Fold change /veh PRF1 (11729649_at) / RFU, ZNF638 /// ZNF638-IT1 / Fold change vs veh, ZNF638 /// ZNF638-IT1 / RFU, PANK3 / Fold change vs veh, PANK3 / RFU, SH3YL1 / Fold change vs veh, SH3YL1 / RFU, ZEB2 / Fold change vs veh, ZEB2 / RFU, NRIP1 / Fold change vs veh, NRIP1 / RFU, PTTG1IP / Fold change vs veh, PTTG1IP / RFU, CAPN2 / Fold change vs veh, CAPN2 / RFU, MED14 / Fold change vs veh, MED14 / RFU, SNORA58 / Fold change vs veh, SNORA58 / RFU, C1orf63 / Fold change vs veh, C1orf63 / RFU, LRRFIP1 / Fold change vs veh, LRRFIP1 / RFU, NDUFAF7 / Fold change vs veh, NDUFAF7 / RFU, SLC12A2 / Fold change vs veh, SLC12A2 / RFU, IBTK / Fold change vs veh, IBTK / RFU, ESF1 / Fold change vs veh, ESF1 / Fold change vs veh, TMEM50B / RFU, TAOK1 / Fold change vs veh, TAOK1 / RFU, ACBD3 / Fold change vs veh, ACBD3 / RFU, TMA16 / Fold change vs veh, TMA16 / RFU, RWDD3 / Fold change vs veh, RWDD3 / RFU, BCAT1 / Fold change vs veh, BCAT1 / RFU, EDEM3 / Fold change vs veh, EDEM3 / RFU, TMEM33 / Fold change vs veh, TMEM33 / RFU, WDR75 / Fold change vs veh, WDR75 / RFU, AHCTF1 / Fold change vs veh, AHCTF1 / RFU, TFRC / Fold change vs veh, TFRC / RFU, ZDHHC17 / Fold change vs veh, ZDHHC17 / RFU, NOM1 / Fold change vs veh, NOM1 / RFU, ARL8B / Fold change vs veh, ARL8B / RFU, ZBTB11 / Fold change vs veh, ZBTB11 / RFU, TAMM41 / Fold change vs veh, TAMM41 / RFU, KIAA1704 /// LOC100996395 / Fold change vs veh, KIAA1704 /// LOC100996395 / RFU, ING1 / Fold change vs veh, ING1 / RFU, TRMT61B / Fold change vs veh, TRMT61B / RFU, FUBP3 / Fold change vs veh, FUBP3 / RFU, TP53 / Fold change vs veh, TP53 / RFU, TNKS2 / Fold change vs veh, TNKS2 / RFU, ZFP14 / Fold change vs veh, ZFP14 / RFU, ACTR2 / Fold change vs veh, ACTR2 / RFU, PPP3R1 / Fold change vs veh, PPP3R1 / RFU, PIK3R1 / Fold change vs veh, PIK3R1 / RFU, HNRNPA1 / Fold change vs veh, HNRNPA1 / RFU, RNF170 / Fold change vs veh, RNF170 / RFU, ZNF28 / Fold change vs veh, ZNF28 / RFU, RNGTT / Fold change vs veh, RNGTT / RFU, OGT / Fold change vs veh, OGT / RFU, BRD1 / Fold change vs veh, BRD1 / RFU, MARS / Fold change vs veh, MARS / RFU, ZNF655 / Fold change vs veh, ZNF655 / RFU, FAHD1 / Fold change vs veh, FAHD1 / RFU, BDP1 / Fold change vs veh, BDP1 / RFU, LRRCC1 / Fold change vs veh, LRRCC1 / RFU, ARID1A / Fold change vs veh, ARID1A / RFU, ZNF146 / Fold change vs veh, ZNF146 / RFU, ZNF330 / Fold change vs veh, ZNF330 / RFU, GPN3 / Fold change vs veh, GPN3 / RFU, C9orf123 / Fold change vs veh, C9orf123 / RFU, N4BP2L2 / Fold change vs veh, N4BP2L2 / RFU, ARFIP1 / Fold change vs veh, ARFIP1 / RFU, FAM179B / Fold change vs veh, FAM179B / RFU, BCL10 / Fold change vs veh, BCL10 / RFU, UHRF1BP1L / Fold change vs veh, UHRF1BP1L / RFU, BET1 / Fold change vs veh, BET1 / RFU, CNOT2 / Fold change vs veh, CNOT2 / RFU, ZNF268 / Fold change vs veh, ZNF268 / Fold change vs veh, ZNF507 / RFU, DGCR2 / Fold change vs veh, DGCR2 / RFU, WDSUB1 / Fold change vs veh, WDSUB1 / Fold change vs veh, HSP90B1 /// MIR3652 / RFU, ADSS / Fold change vs veh, ADSS / RFU, GK / Fold change vs veh, GK / RFU, ZNF148 / Fold change vs veh, ZNF148 / RFU, TAF9 / Fold change vs veh, TAF9 / RFU, SLC1A5 / Fold change vs veh, SLC1A5 / RFU, SLMO2 / Fold change vs veh, SLMO2 / RFU, ABCC4 / Fold change vs veh, ABCC4 / RFU, LOC101060439 /// RAP1B / Fold change vs veh, LOC101060439 /// RAP1B / RFU, RFX7 / Fold change vs veh, RFX7 / RFU, GTPBP10 / Fold change vs veh, GTPBP10 / RFU, CNEP1R1 / Fold change vs veh, CNEP1R1 / RFU, BIVM-ERCC5 /// ERCC5 / Fold change vs veh, BIVM-ERCC5 /// ERCC5 / RFU, ILF3 / Fold change vs veh, ILF3 / RFU 11762660_at / Fold change /veh 11762660_at / RFU VCAN (11757783_s_at) / Fold change /veh VCAN (11757783_s_at) / RFU DDX43 (11728927_at) / Fold change /veh DDX43 (11728927_at) / RFU KRT8 (11758188_x_at) / Fold change /veh KRT8 (11758188_x_at) / RFU NKD1 (11759106_at) / Fold change /veh NKD1 (11759106_at) / RFU SRD5A1 (11742802_a_at) / Fold change /veh SRD5A1 (11742802_a_at) / RFU TPSAB1 /// TPSB2 (11721975_s_at) / Fold change /veh TPSAB1 /// TPSB2 (11721975_s_at) / RFU GSTM3 (11746129_a_at) / Fold change /veh GSTM3 (11746129_a_at) / RFU IL23R (11737362_x_at) / Fold change /veh IL23R (11737362_x_at) / RFU TMEM51 (11727254_a_at) / Fold change /veh TMEM51 (11727254_a_at) / RFU PIWIL2 (11732686_x_at) / Fold change /veh PIWIL2 (11732686_x_at) / RFU ORM1 (11744905_x_at) / Fold change /veh ORM1 (11744905_x_at) / RFU CCDC152 (11743942_at) / Fold change /veh CCDC152 (11743942_at) / RFU ECM1 (11717891_a_at) / Fold change /veh ECM1 (11717891_a_at) / RFU IL23R (11748794_a_at) / Fold change /veh IL23R (11748794_a_at) / RFU TNFAIP8L3 (11732012_x_at) / Fold change /veh TNFAIP8L3 (11732012_x_at) / RFU MBOAT4 (11741988_at) / Fold change /veh MBOAT4 (11741988_at) / RFU 11764193_at / Fold change /veh 11764193_at / RFU TMEM53 (11763286_at) / Fold change /veh TMEM53 (11763286_at) / RFU MAGEB2 (11727129_at) / Fold change /veh MAGEB2 (11727129_at) / RFU TMEM200A (11744735_a_at) / Fold change /veh TMEM200A (11744735_a_at) / RFU CCDC152 (11751479_a_at) / Fold change /veh CCDC152 (11751479_a_at) / RFU FAM211A (11726209_a_at) / Fold change /veh FAM211A (11726209_a_at) / RFU RGS16 (11746705_a_at) / Fold change /veh RGS16 (11746705_a_at) / RFU VCAN (11755009_s_at) / Fold change /veh VCAN (11755009_s_at) / RFU RHOB (11743442_s_at) / Fold change /veh RHOB (11743442_s_at) / RFU RGS16 (11720943_a_at) / Fold change /veh RGS16 (11720943_a_at) / RFU RGS16 (11720944_at) / Fold change /veh RGS16 (11720944_at) / RFU, VPS4B / Fold change vs veh, VPS4B / RFU, CREB1 / Fold change vs veh, CREB1 / RFU, DNAJC13 / Fold change vs veh, DNAJC13 / RFU, GNAQ / Fold change vs veh, GNAQ / RFU, CDK5R1 / Fold change vs veh, CDK5R1 / RFU, ZRANB3 / Fold change vs veh, ZRANB3 / RFU, CUL4A / Fold change vs veh, CUL4A / RFU, CCNY / Fold change vs veh, CCNY / RFU, UFL1 / Fold change vs veh, UFL1 / RFU, COG3 / Fold change vs veh, COG3 / RFU, DIAPH2 / Fold change vs veh, DIAPH2 / RFU, SKA2 / Fold change vs veh, SKA2 / RFU, AFF3 / Fold change vs veh, AFF3 / RFU, LMF1 / Fold change vs veh, LMF1 / RFU, IPO11 / Fold change vs veh, IPO11 / RFU, DFFB / Fold change vs veh, DFFB / RFU, FOXP1 / Fold change vs veh, FOXP1 / RFU, CARD8 / Fold change vs veh, CARD8 / RFU, STRN3 / Fold change vs veh, STRN3 / RFU, ADK / Fold change vs veh, ADK / RFU, RASSF2 / Fold change vs veh, RASSF2 / RFU, WIPF1 / Fold change vs veh, WIPF1 / RFU, LARP1B / Fold change vs veh, LARP1B / RFU, RASA1 / Fold change vs veh, RASA1 / RFU, RB1 / Fold change vs veh, RB1 / RFU, PPFIA1 / Fold change vs veh, PPFIA1 / RFU, MAT2A / Fold change vs veh, MAT2A / RFU, CCT5 / Fold change vs veh, CCT5 / RFU, WDR92 / Fold change vs veh, WDR92 / RFU, CUX1 / Fold change vs veh, CUX1 / RFU, TTC7A / Fold change vs veh, TTC7A / RFU, TMEM135 / Fold change vs veh, TMEM135 / RFU, DEPTOR / Fold change vs veh, DEPTOR / RFU, CPM / Fold change vs veh, CPM / RFU, DNAJB6 / Fold change vs veh, DNAJB6 / RFU, CACNA2D3 / Fold change vs veh, CACNA2D3 / RFU, DTX4 / Fold change vs veh, DTX4 / RFU, TFCP2 / Fold change vs veh, TFCP2 / RFU, GMCL1 /// GMCL1P1 / Fold change vs veh, GMCL1 /// GMCL1P1 / RFU, AEBP2 / Fold change vs veh, AEBP2 / RFU, SNHG1 /// SNORD22 /// SNORD25 /// SNORD26 /// SNORD27 /// SNORD28 /// SNORD29 /// SNORD31 / Fold change vs veh, SNHG1 /// SNORD22 /// SNORD25 /// SNORD26 /// SNORD27 /// SNORD28 /// SNORD29 /// SNORD31 / Fold change (Aza/veh), C12orf56 (ProbeSet 11735607_a_at) / Fold change (ACY-1035/veh), C12orf56 (ProbeSet 11735607_a_at) / Fold change (Aza/veh), FGFR1OP (ProbeSet 11751329_s_at) / Fold change (ACY-1035/veh), FGFR1OP (ProbeSet 11751329_s_at) / Fold change (Aza/veh), VPS36 (ProbeSet 11739960_a_at) / Fold change (ACY-1035/veh), VPS36 (ProbeSet 11739960_a_at) / RFU SYPL1 (11715823_x_at) / Fold change /veh SYPL1 (11715823_x_at) / RFU IGFBP7 (11715501_s_at) / Fold change /veh IGFBP7 (11715501_s_at) / RFU REEP3 (11722064_at) / Fold change /veh REEP3 (11722064_at) / RFU IGLL1 (11728026_x_at) / Fold change /veh IGLL1 (11728026_x_at): dose or concentration left out as unconfirmed
Settings: ProbeSet 11741070_a_at; LIST B

## Nc1ncn([C@@H]2O[C@H](CO)[C@@H](O)[C@H]2O)c(=O)n1 [azacitidine]
  RFU, ZNF146: 2051.58 RFU

From paper PMC5218480 (PLoS ONE, 2017)
